Test results: patent US11447533B2, “Antimicrobial and anticancer peptides and conjugates and compositions, methods, articles and kits relating thereto” (George Mason Research Foundation, Inc., priority 2018, dated 2022)

Columns and labels:
[1] = tested on: primary lung epithelium cells; assay: Cytotoxicity (Alamar blue); format: cell-based, human; settings: ~16 hours (overnight), reduced serum conditions
Experimental: FIGS. 11A-11B are graphs showing cytotoxicity against primary lung epithelium cells in serum-free condition. Cells were seeded in complete growth medium (Minimal essential medium supplemented with 10% fetal bovine serum) at near-confluence into a 96-well plate and allowed to settle for 24-hours. Media was then replaced to OptiMEM I reduced serum medium containing peptide or vehicle alone (DBPS) and cells were incubated overnight (16 hours). A resazurin based dye (Alamar blue) was added directly to media and conversion of resazurin to resorufin was evaluated following two hours. % Survival represents the proportion of viable cells in peptide treated cells relative to cells treated with vehicle alone. […] Each peptide was tested in triplicate.
FIG. 12 is a graph showing comparison of toxicities against Lung Primary Epithelial cells and Lung Cancerous Epithelial Cells, derived from H358 cell-line. […] Each peptide was tested in triplicate.
Cytotoxicity. Cells were seeded in complete growth medium (Minimal Essential Medium, MEMα, supplemented with 10% Fetal Bovine Serum) into a culture-treated 96-well plate at a density of 25000 cells per well. After 24 hours, culture media was aspirated and replaced with media containing the selected peptide. No-serum experiments were conducted in Opti-MEM I reduced serum media (ThermoFisher, 31985062) and 10% serum experiments were performed in complete growth medium. In all cases, DBPS was used as a vehicle only control and buffer to serially dilute the peptides. After exposure to the peptides or vehicle-alone for the defined period, Alamar blue dye (resazurin) was added directly to the media and allowed to incubate for two hours. Following incubation, A570/A600 measurements were made to calculate reduction of resazurin dye to resorufin. A ratio of reduction in treated versus untreated cells was calculated in order to determine overall cell viability. The human cells were always maintained in a 37° C. incubator under 5% CO2.

[2] = Endotoxin binding: competitive displacement of BODIPY TR-Cadaverine from LPS; set-up: species or system Escherichia coli; settings: 5 μM peptide, 10 μM BC, 10 μg/mL LPS, low ionic-strength 10 mM Na-PO4
Experimental: (§1) FIGS. 2A-2B are graphs showing endotoxin binding. The figures depict the competitive displacement of BC from LPS/LTA by the peptides. 5 μM of each peptide was incubated with 10 μM BC and 10 μg/mL LPS from E. coli (0111:B4) or LTA from S. aureus. Fluorescence intensity was measured at excitation=580 nm and emission=620 nm. 10 μM BC without endotoxin was used as 100% displacement while 10 μM BC with 10 μg/mL LPS/LTA without any peptide as 0% displacement and the % displacement of BC by each peptide was calculated accordingly. […] had been used as a positive control. The horizontal dotted line coincides with the % displacement of BC by ATRA1 on the y-axis.
(§2) FIGS. 6A-6B are graphs showing endotoxin (LPS (FIG. 6A) and LTA (FIG. 6B)) binding. Competitive displacement of BC from LPS/LTA. In each case, 5 μM peptide was incubated with 10 μM BC and 10 μg/mL LPS from E. coli (0111:B4) or LTA from S. aureus. Fluorescence intensity was measured using excitation=580 nm and emission=620 nm. As a positive control 10 μM BC without endotoxin was used as a reference for 100% displacement while 10 μM BC with 10 μg/mL LPS/LTA without any peptide as a negative control and a reference for 0% displacement. These controls were used to calculate % BC displacement for each peptide.
(§3) Endotoxin Binding. The binding of endotoxin (LPS/LTA) was evaluated using a fluorogenic conjugateBODIPY TR-Cadaverine (BC). BC binds endotoxin loses its fluorescence. The peptide competitively displaces BC from endotoxin and the fluorescence is reestablished. Competitive inhibition of endotoxin-BC binding was utilized due to presence of peptides already in complexion with endotoxin. 25 μL of 20 μM of peptides in 10 mM Na—PO4 buffer were incubated with 25 μL of LPS (40 μg/mL) or LTA (40 μg/mL) for 15 min and then added with 50 μL of BC (20 uM). Peptides bind to LPS or LTA and competitively prevents BC bind to the endotoxin. BC loses its fluorescence on binding to endotoxin. The fluorescence intensity of the unbound BC was measured at excitation=580 nm and emission=620 nm.
(§4) BC contains two functional moieties: BODIPY (boron-dipyrromethene) and cadaverine connected via a carboxamide. BODIPY is the fluorophore of BC and fluoresces in the free state in solution but loses fluorescence when bound to LPS/LTA. The competitive displacement of BC from LPS/LTA by AMPs and thus regeneration of the fluorescence has frequently been used to estimate the binding strength of AMPs with LPS/LTA. In the present studies, 5 μM of each peptide was used to displace BC from LPS/LTA. […] Such observation contradicts the initial assumption that substitution of Lys with arginine would result in increased efficiency of LPS binding. However, with sequential substitutions of Lys with arginine, starting with ATRA1-AR, peptide variants show increased LPS binding with each additional arginine substitution. In terms of LPS binding: ATRA1-AR<ATRA1-AR2<ATRA1-AR3. In ATRA1-R3, the lysine residues at 9th, 5th and 1st positions of ATRA1 were substituted with arginine. In ATRA1-R6 all of the lysine residues were replaced with arginine.

[3] = Endotoxin binding: competitive displacement of BODIPY TR-Cadaverine from LTA; set-up: species or system Staphylococcus aureus; settings: 5 μM peptide, 10 μM BC, 10 μg/mL LTA, 10 mM Na-PO4
Experimental: as §1, §2, §3, §4

[4] = tested on: E. coli ATCC 25922; assay: Antimicrobial efficacy (resazurin virtual colony count); format: cell-based, Escherichia coli; settings: PBS (high / physiologically relevant ionic strength), pH 7.4
Experimental: Antimicrobial Studies. The phosphate buffers used for antimicrobial assays were supplemented with non-nitrogenous energy source, 0.1% (w/v) glucose. To conduct antimicrobial assays, bacterial strains were first suspended in respective buffers. E. coli (ATCC 25922) and B. cereus (ATCC 11778) were grown in MHB II up to OD600 nm˜1 and stored as frozen stock in 20% glycerol at −80° C. Occasionally they were thawed and enumerated by serial dilution and spreading on MHB II agar plates. The concentrations of the frozen stocks of E. coli and B. cereus strains were 1.0-1.1*10^8 CFU/mL with OD600 nm˜0.8. In case of other bacterial strains, they were grown on the days of experiment up to OD600 nm˜1-1.5 and then adjusted to OD600 nm˜0.8. The growth media of the drug-resistant bacterial strains were supplemented with few of the respective antibiotics against which they are resistant. 200 μL of the 0.8 OD600 nm culture were added to 10 mL of the respective buffer to obtain a suspension which was used to incubate with equal volumes of peptide solution in the same buffer.
Antimicrobial assays in different phosphate buffers and serum were conducted by adapting, with necessary modifications a fast high-throughput method based on Virtual Colony Count technique and later modified by incorporating the use of resazurin. At first serial dilution of a microbial strain in respective buffer was poured in the wells of 96 well polypropylene microplate and was then added with same volume of 2× MHB II supplemented with 80 μg/mL resazurin and incubated at 35° C. in a Gemini EM Microplate Reader (Molecular Devices) overnight with intermittent shaking. As the microbe grows it reduces non-fluorescent resazurin to fluorescent resorufin and the fluorescent intensity of each well were measured (excitation=570 nm, emission=590 nm) each 5 min for 15 hours. The time (t, min) to reach a certain fluorescence (RFU=20000 with respect to the starting fluorescence) was correlated with the initial bacterial concentration (in CFU/mL) in the particular well to obtain a calibration plot of the form: Log([Bacteria],CFU/mL)=b+m*t Equation 4: […]
To obtain antimicrobial efficacy of the peptides, 50 μL of serially diluted peptide in a buffer was incubated with 50 μL microbial suspension in the same buffer for 3 hours in black polypropylene 96 well plate. After incubation the wells were added with 100 μL of 2× MHB II supplemented with 80 μg/mL resazurin and then incubated with continuous fluorescence reading for overnight time period as described earlier. The surviving microbial population (CFU/mL) in each well were calculated by first finding the time to reach a fluorescence of RFU=20000 and the correlation (4) for the specific microbial strain and buffer. % Survival represents the proportion of viable cells in peptide treated cells relative to cells treated with the respective buffer alone. Equation 5: […]
Finally, the antimicrobial effectiveness of each peptide against the particular microbial strain in the specific buffer was determined by plotting % microbial survival as a function of the log of the concentration of the peptide and fitting the resulting data to a variable-slope sigmoidal regression model (equation 6). In this equation, log(EC50) represents the log of the concentration of the peptide required to kill half of the microbial population, where Smin and Smax correspond to the minimal and maximal microbial survival values (respectively), and H, Hill slope, is the parameter defining the steepness of the transition slopes of sigmoidal survival curves. % Microbial survival=Smin+(Smax−Smin)/(1+10^log(EC^50^)-log[peptide]*H) Equation 6: […]
The antimicrobial efficacies of the peptides were first tested against the model Gram-negative bacteria, E. coli ATCC 25922, in different phosphate buffers having varied ionic strengths and compositions. The phosphate buffers that were used included 10 mM sodium phosphate (calculated ionic strength˜25 mM), PBS and DPBS. […]

| Compound | cytotoxicity, in words [1] | LPS binding (BC displacement), in words [2] | LTA binding (BC displacement), in words [3] | antimicrobial efficacy, in words [4] |
| --- | --- | --- | --- | --- |
| CC[C@H](C)[C@H](NC(=O)CN)C(=O)NCC(=O)N[C@@H](C)C(=O)N[C@H](C(=O)N[C@@H](CC(C)C)C(=O)N[C@@H](CCCCN)C(=O)N[C@H](C(=O)N[C@@H](CC(C)C)C(=O)N[C@H](C(=O)N[C@H](C(=O)NCC(=O)N[C@@H](CC(C)C)C(=O)N1CCC[C@H]1C(=O)N[C@@H](C)C(=O)N[C@@H](CC(C)C)C(=O)N[C@H](C(=O)N[C@@H](CO)C(=O)N[C@@H](Cc1c[nH]c2ccccc12)C(=O)N[C@H](C(=O)N[C@@H](CCCCN)C(=O)N[C@@H](CCCNC(=N)N)C(=O)N[C@@H](CCCCN)C(=O)N[C@@H](CCCNC(=N)N)C(=O)N[C@@H](CCC(N)=O)C(=O)N[C@@H](CCC(N)=O)C(N)=O)[C@@H](C)CC)[C@@H](C)CC)[C@@H](C)O)[C@@H](C)O)C(C)C)C(C)C [melittin] | killed the cells at the highest degree | – | – | – |
| KKAKKFFKKLK (SEQ ID NO: 5) [ATRA1-AK] | – | highest LPS binding among all the peptides | highest LTA binding | lost activity in PBS |
